“Also recorded” adds a separate entry of the source.
Key:
[1] = target: T1, binding of FimA type II fimbrial protein to α5β1 integrin expression cells (Homo sapiens, UniProt P05556+P08648); experiment: Binding Inhibitory Experiment 1: FimA II-His bound to seeded test cells, detected by ELISA; format: cell-based, Porphyromonas gingivalis; conditions: cells immobilized; 10 μl beads; about 30 μM RGD peptide or fibronectin, about 100 μM SBA; compared to fibronectin or RGD peptide alone; FIG. 2
T1 construct: expressed in transfected cells; host or cells: CHO (CHO-VLA5)
Method: (§1) CHO cells on which α5β1 integrin was forcedly expressed by introducing a gene encoding α5β1 integrin (hereinafter sometimes referred to as “CHO-VLA5”), and gingival cells were used in the Binding Inhibitory Experiments described below. As the gingival cells, three types of cells, GE1, Ca9-22 and Sa3, were used. As a control, CHO cells into which α5β1 integrin was not introduced were used. GE1, Ca9-22, and Sa3 were obtained from ATCC (American Type Culture Collection).
Test cells were seeded into a 96-well plate in an amount of 5×10^5 cells. Subsequently, 50 μl of FimA II-His (10 μg/ml) was allowed to bind to the cells, and 10 μl of SBA beads, RGD peptide−SBA beads, or fibronectin−SBA beads were allowed to coexist. The plate was shaken at room temperature for 10 minutes. For comparison, an experiment in which an RGD peptide or fibronectin was allowed to coexist was performed in a similar manner. […]
After the 96-well plate was gently washed, FimA II-His bound to the cells was detected by ELISA using an anti-His tag antibody (Cat. No. 71554-3; available from Novagen).
The fibronectin−SBA bead solution contained about 30 μM of fibronectin and about 100 μM of SBA, whereas the solution containing only fibronectin contained about 30 μM of fibronectin. These values were calculated by measuring the amount of each protein not bound to the beads during the production. […]

[2] = tested on: P. gingivalis carrying type II FimA fimbrial protein; experiment: Binding Inhibitory Experiment 3: fluorescently labeled P. gingivalis bound to seeded test cells; format: cell-based, Porphyromonas gingivalis; conditions: 30 μl beads, 10 μl P. gingivalis, room temperature 10 minutes; FIG. 4
Method: Test cells were seeded into a 96-well plate in an amount of 5×10^5 cells. The next day, 10 μl of P. gingivalis carrying FimA type II fimbrial protein was allowed to bind, and 30 μl each of SBA beads, RGD peptide−SBA beads, and fibronectin−SBA beads were added. The plate was shaken at room temperature for 10 minutes.
The 96-well plate was gently washed. Fluorescently labeled P. gingivalis carrying type II FimA fimbrial protein bound to the cells was detected using a fluorescence detector. P. gingivalis was fluorescently labeled by using an FITC Labeling Kit (manufactured by Kirkegaard & Perry Laboratories, Inc.) after P. gingivalis was immobilized with formalin.

[3] = target: T2, binding of type II FimA protein to α5β1 integrin expression cells (Homo sapiens, UniProt P05556+P08648); experiment: Binding Inhibitory Experiment 2: fluorescently labeled test cells bound to immobilized FimA II-His; format: cell-based, Porphyromonas gingivalis; conditions: 50 μl beads, compared to fibronectin or RGD peptide alone, FIG. 3
T2 construct: expressed in transfected cells; host or cells: CHO (CHO-VLA5)
Method: as §1
FimA II-His (10 μg/(ml)) was immobilized onto a 96-well plate, and test cells that had been fluorescently labeled with CellTracker Green CMFDA (available from Invitrogen) were added in an amount of 1×10^6 cells and allowed to bind.
50 μl of SBA beads, RGD peptide−SBA beads, or fibronectin−SBA beads were allowed to coexist in each well, and the plate was shaken. For comparison, an experiment in which an RGD peptide or fibronectin was allowed to coexist was performed in a similar manner.
Each well of the 96-well plates was filled with serum-free Dulbecco's modified Eagle's medium (hereinafter referred to as DMEM) or with PBS, and covered with a Parafilm to prevent air from entering. The plate was turned upside-down and allowed to stand for 5 minutes. After removing the Parafilm, a supernatant containing unbound cells was removed, and bound cells were detected using a fluorescent plate reader.

[4] = tested on: TNFRI (TNF-α Receptor Type I); experiment: TNFRI phosphorylation by western blotting in test cells treated with P. gingivalis; format: cell-based; conditions: test cells with P. gingivalis carrying type II FimA fimbrial protein (10 μl), 30 μl beads, FIG. 8
Method: Test cells were seeded into a 96-well plate in an amount of 5×10^5 cells. The next day, each well was washed with DMEM, and then P. gingivalis carrying type II FimA fimbrial protein (10 μl) was added as a reagent. The numerical value in the parentheses indicates the final concentration in the medium containing the reagent.
SBA beads, RGD peptide−SBA beads, or fibronectin−SBA beads were allowed to coexist therewith in an amount of 30 μl, and the plate was shaken. After each plate was washed well with PBS, cells were dissolved in 1% NP-40, and subjected to western blotting using an anti-TNFRI antibody, anti-tyrosine phosphorylation antibody, and anti-actin antibody.

[5] = target: T3, α5β1 integrin expressing cells (Homo sapiens, UniProt P05556+P08648); experiment: Binding ratio of RGD peptide or fibronectin to SBA beads, FimA II-His binding inhibitory experiment; format: cell-based; conditions: RGD peptide bound in an amount of 10 to 30 μg per 100 μg of SBA beads
T3 construct: expressed in transfected cells; host or cells: CHO (CHO-VLA5)
Method: Another experiment was performed using α5β1 integrin expressing cells in a manner similar to the FimA II-His tag protein binding inhibitory experiment described above, to investigate the binding ratio of RGD peptide or fibronectin to SBA beads.

TGF-β = experiment: Confirmation of cytokine production: TGF-β produced by Ca9-22 cells; format: cell-based; conditions: 30 μl beads, FIG. 7
Method: Ca9-22 cells were seeded into a 96-well plate in an amount of 5×10^5 cells. The next day, (1) a lipopolysaccharide (hereinafter also referred to as “LPS”; 10 ng/ml), (2) TNF-α(10 ng/ml), (3) P. gingivalis carrying FimA type II fimbrial protein (5 μl), or (4) FimA II-GST (10 μg/ml) was added as a reagent. The parenthesized numerals in the above sentence indicate the final concentrations in the media containing the reagents to 50 μl of the medium.
SBA beads, RGD peptide−SBA beads, or fibronectin−SBA beads were allowed to coexist therewith in an amount of 30 μl, and the plate was rocked. The amount of TGF-β produced was then measured.

[6] = tested on: interaction between gingival cells and FimA II; experiment: Comparison with other lectins: labeled test cells bound to immobilized FimA II-His; format: cell-based, Porphyromonas gingivalis; conditions: 10 μL beads; SBA compared to WGA (wheat germ lectin); FIG. 5
Method: FimA II-His (10 μg/ml) was immobilized onto a 96-well plate, and test cells that had been fluorescently labeled with CellTracker Green CMFDA (manufactured by Invitrogen) were bound in an amount of 1×10^6 cells.
Subsequently, 10 μL of SBA beads, RGD peptides, RGD peptide−SBA beads, WGA beads, or RGD peptide-WGA beads were allowed to coexist, and the plate was shaken.
The WGA beads are beads prepared in the same manner as in the production of SBA beads described above in Item 1, except for using WGA in place of SBA. The RGD peptide-WGA beads are beads prepared in the same manner as in the production of RGD peptide−SBA beads described above in Item 2, except for using WGA in place of SBA.
(§2) The 96-well plate was filled with PBS. After unbound cells were removed, bound cells were detected using a fluorescent plate reader.

[7] = tested on: binding between gingival cells and FimA II; experiment: Effect of monosaccharide on binding inhibitory effect: labeled test cells bound to immobilized FimA II-His; format: cell-based, Porphyromonas gingivalis; conditions: monosaccharide final concentration 50 μg/ml with 10 μl RGD peptide−SBA beads; FIG. 6
Method: FimA II-His (10 μg/ml) was immobilized onto a 96-well plate, and test cells that had been fluorescently labeled with CellTracker Green CMFDA (Invitrogen) were bound thereto in an amount of 1×10^6 cells.
SBA beads, RGD peptide, or RGD peptide−SBA beads were allowed to coexist in the wells in an amount of 10 μl, and the plate was shaken. In addition to the RGD peptide−SBA beads, glucose or N-acetylgalactosamine (GalNAc) was allowed to coexist therewith in a final concentration of 50 μg/ml. For comparison, wells of a 96-well plate in which no beads were present and only N-acetylgalactosamine was present in a final concentration of 50 μg/ml were also prepared.
as §2

[8] = Ca9-22 cells treated with LPS 10 ng/ml
[9] = Ca9-22 cells treated with TNF-α 10 ng/ml
[10] = Ca9-22 cells with FimA II-GST 10 μg/ml
[11] = Ca9-22 cells with P. gingivalis carrying FimA type II fimbrial protein (5 μl)

T2 sequence (P08648 42-894 limits assumed): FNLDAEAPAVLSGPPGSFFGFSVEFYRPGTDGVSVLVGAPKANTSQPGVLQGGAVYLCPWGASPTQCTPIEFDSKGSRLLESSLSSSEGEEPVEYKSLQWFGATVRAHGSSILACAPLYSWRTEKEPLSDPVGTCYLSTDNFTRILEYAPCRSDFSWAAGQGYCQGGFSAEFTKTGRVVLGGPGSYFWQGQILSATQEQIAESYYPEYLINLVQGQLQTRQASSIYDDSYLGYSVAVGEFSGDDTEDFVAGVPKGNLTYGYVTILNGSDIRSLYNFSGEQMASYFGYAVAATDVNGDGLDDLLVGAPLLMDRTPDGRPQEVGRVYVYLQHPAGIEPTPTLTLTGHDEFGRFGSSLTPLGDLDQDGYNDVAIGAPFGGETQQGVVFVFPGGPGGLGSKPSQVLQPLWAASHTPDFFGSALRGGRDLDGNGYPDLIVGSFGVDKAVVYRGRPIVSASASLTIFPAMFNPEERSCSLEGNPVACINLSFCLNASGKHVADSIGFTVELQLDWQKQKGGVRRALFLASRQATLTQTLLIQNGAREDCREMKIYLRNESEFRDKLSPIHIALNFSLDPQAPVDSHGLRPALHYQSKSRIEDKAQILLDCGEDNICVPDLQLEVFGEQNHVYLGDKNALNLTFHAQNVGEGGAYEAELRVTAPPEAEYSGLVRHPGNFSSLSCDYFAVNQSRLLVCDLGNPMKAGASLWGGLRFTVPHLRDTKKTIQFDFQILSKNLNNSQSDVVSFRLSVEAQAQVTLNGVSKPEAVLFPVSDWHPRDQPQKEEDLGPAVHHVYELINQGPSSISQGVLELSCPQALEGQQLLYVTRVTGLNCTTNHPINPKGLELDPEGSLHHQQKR
T2 sequence (P08648 895-1049 limits assumed): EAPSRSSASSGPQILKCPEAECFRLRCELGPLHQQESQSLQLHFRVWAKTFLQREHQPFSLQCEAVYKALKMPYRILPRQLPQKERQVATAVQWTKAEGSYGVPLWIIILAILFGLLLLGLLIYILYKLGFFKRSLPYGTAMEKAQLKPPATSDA
T2 sequence (P05556 21-798): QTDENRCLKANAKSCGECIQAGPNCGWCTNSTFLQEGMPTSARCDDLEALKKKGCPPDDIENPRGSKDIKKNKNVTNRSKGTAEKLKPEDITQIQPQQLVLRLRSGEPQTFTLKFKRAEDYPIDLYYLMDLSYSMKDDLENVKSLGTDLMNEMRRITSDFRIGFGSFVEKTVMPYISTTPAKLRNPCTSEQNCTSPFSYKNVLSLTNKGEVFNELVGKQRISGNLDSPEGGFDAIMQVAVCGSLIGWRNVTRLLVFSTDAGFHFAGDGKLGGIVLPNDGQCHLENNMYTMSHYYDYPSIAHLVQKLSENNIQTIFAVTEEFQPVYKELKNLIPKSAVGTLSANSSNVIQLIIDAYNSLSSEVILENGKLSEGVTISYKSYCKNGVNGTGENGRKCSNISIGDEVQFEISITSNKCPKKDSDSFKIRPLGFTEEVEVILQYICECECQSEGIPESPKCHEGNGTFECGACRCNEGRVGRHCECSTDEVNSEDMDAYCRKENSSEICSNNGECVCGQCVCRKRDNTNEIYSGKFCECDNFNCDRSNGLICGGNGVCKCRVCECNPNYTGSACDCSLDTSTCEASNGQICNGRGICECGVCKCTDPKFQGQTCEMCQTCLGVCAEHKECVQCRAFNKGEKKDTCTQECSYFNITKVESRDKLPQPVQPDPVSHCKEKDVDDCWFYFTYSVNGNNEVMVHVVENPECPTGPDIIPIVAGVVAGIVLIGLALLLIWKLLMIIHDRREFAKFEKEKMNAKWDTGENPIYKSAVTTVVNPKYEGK
T1 sequence (P08648 42-894 limits assumed): as the sequence (P08648 42-894 limits assumed) above
T1 sequence (P08648 895-1049 limits assumed): as the sequence (P08648 895-1049 limits assumed) above
T1 sequence (P05556 21-798): as the sequence (P05556 21-798) above
T3 sequence (P08648 42-894 limits assumed): as the sequence (P08648 42-894 limits assumed) above
T3 sequence (P08648 895-1049 limits assumed): as the sequence (P08648 895-1049 limits assumed) above
T3 sequence (P05556 21-798): as the sequence (P05556 21-798) above

| Molecule | inhibition of binding of FimA type II fimbrial protein to α5β1 integrin expression cells [1] | inhibition of binding of P. gingivalis carrying type II FimA fimbrial protein to gingival cells [2] | inhibition of binding of type II FimA protein to α5β1 integrin expression cells [3] | phosphorylated tyrosine of the activation receptor (TNFRI) [4] | binding inhibition depending on binding ratio of RGD peptide to SBA beads [5] | production of TGF-β (TGF-β; [8]) | production of TGF-β (TGF-β; [9]) | production of TGF-β (TGF-β; [10]) | production of TGF-β (TGF-β; [11]) | inhibition of the interaction between gingival cells and FimA II [6] | effect of coexisting monosaccharide on the RGD peptide−SBA binding inhibitory effect [7] |
| --- | --- | --- | --- | --- | --- | --- | --- | --- | --- | --- | --- |
| RGD peptide−SBA beads: beads in which SBA beads and RGD-peptide (SEQ ID NO: 3, RGDSPASSKP) are bound | significantly inhibited | inhibited; also recorded: remarkably high binding inhibitory effect | significantly inhibited; also recorded: higher than that of fibronectin−SBA beads | not detected | inhibited binding most effectively | production of TGF-β was observed | production of TGF-β was observed | production of TGF-β was inhibited | production of TGF-β was inhibited | – | – |
| SBA: soybean lectin (soybean agglutinin), mucin-type sugar chain-binding lectin; tested bound to beads | – | – | – | – | – | – | – | – | – | more potently inhibits | – |
| SBA beads: conjugate of soybean lectin and NHS-activated Sepharose beads | – | slightly inhibited binding | – | – | – | production of TGF-β was observed | production of TGF-β was observed | production of TGF-β was detected | production of TGF-β was detected | – | – |
| CC(=O)N[C@H]1C(O)O[C@H](CO)[C@H](O)[C@@H]1O (stereo partly shown) [N-acetylgalactosamine] | – | – | – | – | – | – | – | – | – | – | did so |
